Legend:
[1] = tested on: serum ALT activity induced by CCl4; test: Protective effect against acute hepatic damage induced by carbon tetrachloride (serum ALT); assay type: in vivo; conditions: Mus musculus; mice, 50 mg/kg oral, 6 h before CCl4 (50 ul/kg oral); ALT 24 h after CCl4; read-out: Inhibitory (%): protective effect against increase of serum ALT activity induced by CCl4
Protocol: Principle; Carbon tetrachloride (CCl4) is a well-known hepatotoxic agent, thus widely used to produce experimental animal models for screening the potential drugs acting upon hepatic diseases. In this experiment test compounds were administered to mice prior to treatment with CCl4. 24 Hours after the CCl4 treatment, the animals were sacrificed and serum alanine aminotransferase (ALT) levels were determined. The hepatoprotective effect of a test compound was evaluated by the suppressive action against the increase of serum ALT induced by CCl4.
Method; The experimental animals were divided into normal, CCl4 treated and test compound treated groups. Each group consisted of 8 mice with body weight of 20-25 grams. The test compounds were suspended in 0.2% sodium carboxy methyl cellulose (CMC-Na) solution and administered orally at the dose of 50 mg/125 ml/kg body weight. Only the vehicle, 0.2% CMC-Na solution, was administered to the normal and to the CCl4 treated group instead of the test compound suspension. 6 Hours after the drug administration, the CCl4 solution in olive oil was administered orally to the CCl4 treated- and the test compound treated group at the dose of 50 ul/25 ml olive oil/kg body weight. The normal group was administered olive oil only at the same dose. 24 Hours after the CCl4 administration, blood samples were collected from the orbital sinus of the animals and the sera were obtained by centrifugation The serum ALT activities were monitored using an automatic blood analyzer (Gilford, SBA 300). The hepatoprotective effect of the test compounds was expressed by the suppressive percentage against the increase of serum ALT level induced by CCl4 calculated by the following formula; [formula]

[2] = Acute oral toxicity, median lethal dose (LD50); conditions: mouse, in vivo, male ICR mice, deaths counted for 14 days
Protocol: Each test compound was suspended in a 0.2% CMC-Na solution in various concentrations to make test suspension. The test suspensions were administered orally to male ICR mice (10 in each group) at various doses. The number of dead mice was counted for 14 days and the value of mediam lethal dose (LD50, g/kg) was calculated by the Hitchifield-Wilcoxon method.

Compound | inhibition in vivo at 50 mg/kg [1] [%] | LD50 at 336 h [2] [mg/kg]
Cc1ccc(NC(=O)C(C(=O)OC(C)C)=C2SC=CS2)cc1 [17(e), Isopropyl 2-(1,3-dithiol-2-ylidene)-2-[N-(4-methylphenyl)carbamoyl]acetate] | 100 | –
Cc1cccc(NC(=O)C(C(=O)OC(C)C)=C2SC=CS2)c1C [17(f), Isopropyl 2-(1,3-dithiol-2-ylidene)-2-[N-(2,3-dimethylphenyl)carbamoyl]acetate] | 92 | –
CC(C)OC(=O)C(C(=O)Nc1ccc(Cl)cc1)=C1SC=CS1 [17(g), Isopropyl 2-(1,3-dithiol-2-ylidene)-2-[N-(4-chlorophenyl)carbamoyl]acetate] | 81.5 | > 5000
CC(C)OC(=O)C(C(=O)Nc1cccc(Cl)c1)=C1SC=CS1 [17(h), Isopropyl 2-(1,3-dithiol-2-ylidene)-2-[N-(3-chlorophenyl)carbamoyl]acetate] | 97.5 | > 5000
CC(C)OC(=O)C(C(=O)Nc1ccc(F)cc1)=C1SC=CS1 [17(i), Isopropyl 2-(1,3-dithiol-2-ylidene)-2-[N-(4-fluorophenyl)carbamoyl]acetate] | 89.8 | > 5000
CC(C)OC(=O)C(C(=O)Nc1ccccc1F)=C1SC=CS1 [17(j), Isopropyl 2-(1,3-dithiol-2-ylidene)-2-[N-(2-fluorophenyl)carbamoyl]acetate] | – | > 5000
COc1ccc(NC(=O)C(C(=O)OC(C)C)=C2SC=CS2)cc1 [17(l), Isopropyl 2-(1,3-dithiol-2-ylidene)-2-[N-(4-methoxyphenyl)carbamoyl]acetate] | 99.6 | > 5000
CC(=O)Nc1ccc(NC(=O)C(C(=O)OC(C)C)=C2SC=CS2)cc1 [17(q), Isopropyl 2-(1,3-dithiol-2-ylidene)-2-[N-(4-acetamidophenyl)carbamoyl]acetate] | 78.2 | > 5000
CC(=O)Nc1cccc(NC(=O)C(C(=O)OC(C)C)=C2SC=CS2)c1 [17(r), Isopropyl 2-(1,3-dithiol-2-ylidene)-2-[N-(3-acetamidophenyl)carbamoyl]acetate] | 46.6 | –
CC(C)OC(=O)C(C(=O)Nc1ccc(C(F)(F)F)cc1)=C1SC=CS1 [17(s), Isopropyl 2-(1,3-dithiol-2-ylidene)-2-[N-(4-trifluoromethylphenyl)carbamoyl]acetate] | 100 | > 4000
CC(C)OC(=O)C(C(=O)Nc1cccc(C(F)(F)F)c1)=C1SC=CS1 [17(t), Isopropyl 2-(1,3-dithiol-2-ylidene)-2-[N-(3-trifluoromethylphenyl)carbamoyl]acetate] | 96 | –
CC(C)OC(=O)C(C(=O)Nc1ccnc(O)n1)=C1SC=CS1 [18(m)] | 12.8 | > 5000
CC(C)OC(=O)C(C(=O)Nc1nc2ccccc2s1)=C1SC=CS1 [18(n), Isopropyl 2-(1,3-dithiol-2-ylidene)-2-[N-(2-benzothiazolyl)carbamoyl]acetate] | 15.2 | > 5000
Cc1nc(NC(=O)C(C(=O)OC(C)C)=C2SC=CS2)sc1C [19(f), Isopropyl 2-(1,3-dithiol-2-ylidene)-2-[N-(4,5-dimethyl-2-thiazolyl)carbamoyl]acetate] | 91.4 | > 5000
CC(C)OC(=O)C(C(=O)Nc1ncccn1)=C1SC=CS1 [21(d), Isopropyl 2-1,3-dithiol-2-ylidene)-2-(N-pyrimidin-2-ylcarbamoyl) acetate] | 99.8 | 3200
CC(C)OC(=O)C(C(=O)Nc1cccc(O)c1)=C1SC=CS1 [22(c), Isopropyl 2-(1,3-dithiol-2-ylidene)-2-[N-(3-hydroxyphenyl)carbamoyl]acetate] | 93 | > 5000
CC(C)OC(=O)C(C(=O)Nc1ccccc1O)=C1SC=CS1 [22(d), Isopropyl 2-(1,3-dithiol-2-ylidene)-2-[N-(2-hydroxyphenyl)carbamoyl]acetate] | 16.2 | –

Compound | inhibition in vivo at 50 mg/kg [1] [%] | LD50 at 336 h [2] [mg/kg]
CC(C)OC(=O)C(C(=O)NC1=NCCS1)=C1SC=CS1 [22(e), Isopropyl 2-(1,3-dithiol-2-ylidene)-2-[N-(2-thiazolin-2-yl)carbamoyl]acetate] | 99.4 | > 5000
CC(=O)Oc1ccc(NC(=O)C(C(=O)OC(C)C)=C2SC=CS2)cc1 [24(a), Isopropyl 2-(1,3-dithiol-2-ylidene)-2-[N-(4-acetoxyphenyl)carbamoyl]acetate] | 102 | –
CC(=O)Oc1cccc(NC(=O)C(C(=O)OC(C)C)=C2SC=CS2)c1 [24(b)] | 98 | > 5000
CC(=O)Oc1ccccc1NC(=O)C(C(=O)OC(C)C)=C1SC=CS1 [24(c), Isopropyl 2-(1,3-dithiol-2ylidene)-2-[N-(2-acetoxyphenyl)carbamoyl]acetate] | 22.8 | –
CC(C)OC(=O)C(C(=O)Nc1ccccc1C(=O)O)=C1SC=CS1 [25(a), Isopropyl 2-(1,3-dithiol-2-ylidene)-2-[N-(2-carboxyphenyl)carbamoyl]acetate] | 74 | 1200
CC(C)OC(=O)C(C(=O)N1CCOCC1)=C1SC=CS1 [26(a), Isopropyl 2-(1,3-dithiol-2-ylidene)-2-(4-morpholinylcarbonyl)acetate] | 66.5 | –
CC(C)OC(=O)C(C(=O)N1CCN(C)CC1)=C1SC=CS1 [26(b), Isopropyl 2-(1,3-dithiol-2-ylidene)-2-[(4-methylpiperazin-1-yl)carbonyl]acetate] | 46 | –
CC(C)OC(=O)C(C(=O)N1CCCC1)=C1SC=CS1 [26(c), Isopropyl 2-(1,3-dithiol-2-ylidene)-2-(1-pryrrolidinylcarbaonyl) acetate] | 90.5 | –
CC(C)OC(=O)C(C(=O)n1ccnc1)=C1SC=CS1 [26(d), Isopropyl 2-(1,3-dithiol-2-ylidene)-2-(1-imidazolylcarbaony)acetate] | 98 | –
CC(C)OC(=O)C(C(N)=O)=C1SC=CS1 [Example 9, Isopropyl 2-(1,3-dithiol-2-ylidene)-2-carbamoylacetate] | 65.5 | –
CNC(=O)C(C(=O)OC(C)C)=C1SC=CS1 [Example 10, Isopropyl 2-(1,3-dithiol-2-ylidene)-2-(N-methylcarbamoyl) acetate] | 92 | –
CC(C)NC(=O)C(C(=O)OC(C)C)=C1SC=CS1 [Example 11, Isopropyl 2-(1,3-dithiol-2-ylidene)-2-(N-isopropylcarbamoyl)acetate] | 49.4 | 2600
CC(C)OC(=O)C(C(=O)NC1CCCCC1)=C1SC=CS1 [Example 12, Isopropyl 2-(1,3-dithiol-2-ylidene)-2-(N-cyclohexylcarbamoyl)acetate] | 98 | –
CCN(CC)C(=O)C(C(=O)OC(C)C)=C1SC=CS1 [Example 13, Isopropyl 2-(1,3-dithiol-2-ylidene)-2-(N,N-diethylcarbamoyl) acetate] | 55.6 | –
CC(C)OC(=O)C(C(=O)N1CCCC1C(=O)O)=C1SC=CS1 (stereo not shown) [Example 15, Isopropyl 2-(1,3-dithiol-2-ylidene)-2-[(2-carboxypyrrolidin-1-yl)carbonyl]acetate] | 14 | –
CC(C)OC(=O)C(C(=O)N(C)c1ccccc1)=C1SC=CS1 [Example 16, Isopropyl 2-(1,3-dithiol-2-ylidene)-2-(N-methyl-N-phenylcarbamoyl)acetate] | 47.9 | –
COc1cccc(NC(=O)C(C(=O)OC(C)C)=C2SC=CS2)c1 [Example 17(o), isopropyl 2-(1,3-dithiol-2-ylidene)-2-[N-(3-methoxyphenyl)carbamoyl]acetate] | 100 | –
